We go through one molecule from doi:10.1101/2020.10.22.350827v1 (biorxiv, 2020).

Changes are numbered by the printed parent chain.

Assay [1] addresses T1, Nluc-A1R (adenosine A1 receptor) (Homo sapiens, UniProt P30542, I175A).
T1 sequence (P30542 1-326 I175A): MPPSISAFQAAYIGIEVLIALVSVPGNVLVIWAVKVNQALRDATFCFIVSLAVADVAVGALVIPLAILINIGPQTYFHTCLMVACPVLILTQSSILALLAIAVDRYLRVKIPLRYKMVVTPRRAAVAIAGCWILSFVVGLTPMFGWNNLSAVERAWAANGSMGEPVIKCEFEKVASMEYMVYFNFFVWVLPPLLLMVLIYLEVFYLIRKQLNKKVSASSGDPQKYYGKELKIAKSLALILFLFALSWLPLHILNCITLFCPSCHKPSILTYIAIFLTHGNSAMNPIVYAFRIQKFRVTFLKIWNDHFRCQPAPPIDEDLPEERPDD
As to the kind of experiment: NanoBRET competition binding, live HEK […] cells. Type of assay: cell-based. For orientation: Bioluminescence resonance energy transfer reports proximity on the nanometre scale.

In assay [2] the target is T2, Nluc-A1R (adenosine A1 receptor) (Homo sapiens, UniProt P30542, Y271A).
T2 sequence (P30542 1-326 Y271A): T1 sequence (P30542 1-326 I175A) with A175I, Y271A
The experiment in a line: NanoBRET competition binding, live HEK […] cells. Format: cell-based.

Assay [3] has as its target T3, Nluc-A1R (adenosine A1 receptor) (Homo sapiens, UniProt P30542, T257A).
T3 sequence (P30542 1-326 T257A): T1 sequence (P30542 1-326 I175A) with A175I, T257A
The experiment in a line: NanoBRET competition binding, live HEK […] cells. Format: cell-based.

The target in assay [4] is T4, Nluc-A1R (adenosine A1 receptor) (Homo sapiens, UniProt P30542, I69A).
T4 sequence (P30542 1-326 I69A): T1 sequence (P30542 1-326 I175A) with I69A, A175I
The experiment in a line: NanoBRET competition binding, live HEK […] cells. Type of assay: cell-based.

Assay [5] has as its target T5, Nluc-A1R (adenosine A1 receptor) S267A (Homo sapiens, UniProt P30542, S267A).
T5 sequence (P30542 1-326 S267A): T1 sequence (P30542 1-326 I175A) with A175I, S267A
As to the kind of experiment: cell-based. Also noted: species or system HEK 293.

Assay [6] addresses T6, Nluc-A1R (adenosine A1 receptor) L253F (Homo sapiens, UniProt P30542, L253F).
T6 sequence (P30542 1-326 L253F): T1 sequence (P30542 1-326 I175A) with A175I, L253F
As to the kind of experiment: cell-based. Also noted: species or system HEK 293.

The target in assay [7] is T7, Nluc-A1R (adenosine A1 receptor) N70A (Homo sapiens, UniProt P30542, N70A).
T7 sequence (P30542 1-326 N70A): T1 sequence (P30542 1-326 I175A) with N70A, A175I
The experiment in a line: cell-based. Details: species or system HEK 293.

For `OC[C@H]1O[C@@H](n2cnc3c(N[C@@H]4CCC[C@H]4O)ncnc32)[C@H](O)[C@@H]1O` [compound 6, HOCPA], the Ki (commonly a dissociation constant, usually derived from enzyme kinetics or from competition with a known ligand) in assay [1] is 2190 nM; in assay [2], 7080 nM; in assay [3], 115 nM; in assay [4], 45700 nM; in assay [5], 1020 nM; in assay [6], 1620 nM. The molecule further gave a Ki in assay [7] of 891 nM.
